Test results: patent US20090099177A1, “PYRIDYL COMPOUNDS” (priority 2006, published 2009)
Structures can show the parent of a compound that is named as a salt.

What follows are molecules tested against T1, human EP1 receptor (Homo sapiens, UniProt P34995) (assay: human EP1 calcium mobilisation assay). Details: human EP1, CHO-K1 cells, antagonism of PGE2; averages of a number of experiments; read-out: functional pKi value (converted).
T1 construct: expressed in transfected cells; host or cells: CHO-K1
T1 sequence (P34995 1-402): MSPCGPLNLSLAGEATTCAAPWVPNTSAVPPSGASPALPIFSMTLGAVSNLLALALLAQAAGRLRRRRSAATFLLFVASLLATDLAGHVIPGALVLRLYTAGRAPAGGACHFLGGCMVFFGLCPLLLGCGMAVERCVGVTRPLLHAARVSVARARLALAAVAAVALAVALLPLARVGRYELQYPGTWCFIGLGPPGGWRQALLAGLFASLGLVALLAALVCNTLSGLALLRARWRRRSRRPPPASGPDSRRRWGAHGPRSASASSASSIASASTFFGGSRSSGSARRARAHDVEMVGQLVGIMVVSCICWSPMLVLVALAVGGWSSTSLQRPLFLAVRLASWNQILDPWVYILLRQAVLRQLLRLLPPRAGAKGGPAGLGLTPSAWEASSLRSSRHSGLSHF
Format: cell-based
Method: Briefly, the antagonist properties of compounds are assessed by their ability to inhibit the mobilisation of intracellular calcium ([Ca^2+]i) in response to activation of EP1 or EP3 receptors by the natural agonist hormone prostaglandin E2 (PGE2). Increasing concentrations of antagonist reduce the amount of calcium that a given concentration of PGE2 can mobilise. The net effect is to displace the PGE2 concentration-effect curve to higher concentrations of PGE2. The amount of calcium produced is assessed using a calcium-sensitive fluorescent dye such as Fluo-4, AM and a suitable instrument such as a Fluorimetric Imaging Plate Reader (FLIPR). Increasing amounts of [Ca^2+]i produced by receptor activation increase the amount of fluorescence produced by the dye and give rise to an increasing signal. The signal may be detected using the FLIPR instrument and the data generated may be analysed with suitable curve-fitting software.
The human EP1 or EP3 calcium mobilisation assay (hereafter referred to as ‘the calcium assay’) utilises Chinese hamster ovary-K1 (CHO-K1) cells into which a stable (pCIN; BioTechniques 20 (1996): 102-110) vector containing either EP1 or EP3 cDNA has previously been transfected. Cells are cultured in suitable flasks containing culture medium such as DMEM:F-12 supplemented with 10% v/v foetal calf serum, 2 mM L-glutamine, 0.25 mg/ml geneticin, 100 μM flurbiprofen and 10 μg/ml puromycin.
For assay, cells are harvested using a proprietary reagent that dislodges cells such as Versene. Cells are re-suspended in a suitable quantity of fresh culture media for introduction into a 384-well plate. Following incubation for 24 hours at 37° C. the culture media is replaced with a medium containing Fluo-4 and the detergent pluronic acid, and a further incubation takes place. Concentrations of compounds are then added to the plate in order to construct concentration-effect curves. This may be performed on the FLIPR in order to assess the agonist properties of the compounds. Concentrations of PGE2 are then added to the plate in order to assess the antagonist properties of the compounds.
The data so generated may be analysed by means of a computerised curve-fitting routine. The concentration of compound that elicits a half-maximal inhibition of the calcium mobilisation induced by PGE2 (pIC50) may then be estimated.

Row | Compound | Ki
1 | CC(C)COc1ccc(Cl)cc1Cc1cccc(-c2nc3cnc4ccccc4c3[nH]2)n1 [Example 24, 2-[6-({5-Chloro-2-[(2-methylpropyl)oxy]phenyl}methyl)-2-pyridinyl]-1H-imidazo[4,5-c]quinoline hydrochloride] | ≤ 0.316 µM
2 | CN1CCN(c2ccc3nc(-c4cccc(Cc5cc(Cl)ccc5OCc5ccccc5)n4)[nH]c3c2)CC1 [Example 26, 2-[6-({5-Chloro-2-[(phenylmethyl)oxy]phenyl}methyl)-2-pyridinyl]-5-(4-methyl-1-piperazinyl)-1H-benzimidazole Hydrochloride] | ≤ 10 µM
3 | Fc1cccc2[nH]c(-c3cccc(Cc4cc(Cl)ccc4OCc4ccccc4)n3)nc12 [Example 32, 2-[6-({5-Chloro-2-[(phenylmethyl)oxy]phenyl}methyl)-2-pyridinyl]-4-fluoro-1H-benzimidazolehydrochioride] | ≤ 10 µM
4 | Clc1ccc(OCc2ccccc2)c(Cc2cccc(-c3nc4cnccc4[nH]3)n2)c1 [Example 38, 2-[6-({5-Chloro-2-[(phenylmethyl)oxy]phenyl}methyl)-2-pyridinyl]-1H-imidazo[4,5-c]pyridinehydrochloride] | ≤ 0.316 µM
5 | CC(C)COc1ccc(Cl)cc1Cc1cccc(NC(=O)c2ccc(CN3CCOCC3)cc2)n1 [Example 45, N-[6-({5-Chloro-2-[(2-methylpropyl)oxy]phenyl}methyl)-2-pyridinyl]-4-(4-morpholinylmethyl)benzamide Hydrochloride] | ≤ 0.316 µM
6 | CC(C)COc1ccc(Cl)cc1Cc1cccc(NC(=O)c2ccc(CN3CCCC3)cc2)n1 [Example 46, N-[6-({5-Chloro-2-[(2-methylpropyl)oxy]phenyl}methyl)-2-pyridinyl]-4-(1-pyrrolidinylmethyl)benzamidehydrochloride] | ≤ 10 µM
7 | CC(C)COc1ccc(Cl)cc1Cc1cccc(NC(=O)c2ccc(CN3CCCCC3)cc2)n1 [Example 47, N-[6-({5-Chloro-2-[(2-methylpropyl)oxy]phenyl}methyl)-2-pyridinyl]-4-(1-piperidinylmethyl)benzamidehydrochloride] | ≤ 10 µM
8 | CC(C)COc1ccc(Cl)cc1Cc1cccc(NC(=O)c2ccc(CN3CCN(C)CC3)cc2)n1 [Example 48] | ≤ 10 µM
9 | CC(C)COc1ccc(Cl)cc1Cc1cccc(-c2nc3ccc(CN4CCCCC4)cc3[nH]2)n1 [Example 50, 2-[6-({5-Chloro-2-[(2-methylpropyl)oxy]phenyl}methyl)-2-pyridinyl]-5-(1-piperidinylmethyl)-1H-benzimidazole hydrochloride] | ≤ 10 µM

Next, values leading:

Row | Ki | Compound
10 | ≤ 10 µM | O=C(Cc1ccccc1)Nc1cccc(Cc2cc(Cl)ccc2OCc2ccccc2)n1 [Example 2, N-[6-({5-Chloro-2-[(phenylmethyl)oxy]phenyl}methyl)-2-pyridinyl]-2-phenylacetamide]
11 | ≤ 0.316 µM | O=C(Nc1cccc(Cc2cc(Cl)ccc2OCc2ccccc2)n1)c1ccccc1 [Example 3, N-[6-({5-Chloro-2-[(phenylmethyl)oxy]phenyl}methyl)-2-pyridinyl]benzamide]
12 | ≤ 0.316 µM | O=C(NCc1ccccn1)c1cccc(Cc2cc(Cl)ccc2OCc2ccccc2)n1 [Example 7, 6-({5-Chloro-2-[(phenylmethyl)oxy]phenyl}methyl)-N-(2-pyridinylmethyl)-2-pyridinecarboxamide]
13 | ≤ 10 µM | CC(C)(C)OC(=O)Nc1cccc(Cc2cc(Cl)ccc2OCc2ccc(Cl)cc2F)n1 [Example 60, 1,1-Dimethylethyl {6-[(5-chloro-2-{[(4-chloro-2-fluoronhenyl)methyl]oxy}phenyl)methyl]-2-pyridinyl}carbamate]
14 | ≤ 10 µM | NC(=O)c1cccc(Cc2cc(Cl)ccc2OCc2ccc(Cl)cc2F)n1 [Example 63, 6-[(5-Chloro-2-{[(4-chloro-2-fluorophenyl)methyl]oxy}phenyl)methyl]-2-pyridinecarboxamide]

Same assay, conditions: human EP1 calcium mobilisation assay; read-out: pIC50 values (converted)

Row | Compound | IC50
15 | O=C(Nc1cccc(Cc2cc(Cl)ccc2OCc2ccccc2)n1)c1cccnc1 [Example 16, N-[6-({5-Chloro-2-[(phenylmethyl)oxy]phenyl}methyl)-2-pyridinyl]-3-pyridinecarboxamide] | > 10 µM
16 | Fc1cc2nc(-c3cccc(Cc4cc(Cl)ccc4OCc4ccccc4)n3)[nH]c2cc1F [Example 37, 2-[6-({5-Chloro-2-[(phenylmethyl)oxy]phenyl}methyl)-2-pyridinyl]-5,6-difluoro-1H-benzimidazolehydrochloride] | > 10 µM

Further lines, results first:

Row | IC50 | Compound
17 | > 10 µM | O=C(Nc1ccccn1)c1cccc(Cc2cc(Cl)ccc2OCc2ccccc2)n1 [Example 6, 6-({5-Chloro-2-[(phenylmethyl)oxy]phenyl}methyl)-N-2-pyridinyl-2-pyridinecarboxamide]
18 | > 10 µM | O=C(Nc1ccccc1)c1cccc(Cc2cc(Cl)ccc2OCc2ccccc2)n1 [Example 10, 6-({5-Chloro-2-[(phenylmethyl)oxy]phenyl}methyl)-N-phenyl-2-pyridinecarboxamide]
19 | > 10 µM | O=C(NCc1ccccc1)c1cccc(Cc2cc(Cl)ccc2OCc2ccccc2)n1 [Example 11, 6-({5-Chloro-2-[(phenylmethyl)oxy]phenyl}methyl)-N-(phenylmethyl)-2-pyridinecarboxamide]
20 | > 10 µM | Fc1ccc2nc(-c3cccc(Cc4cc(Cl)ccc4OCc4ccccc4)n3)[nH]c2c1F [Example 40, 2-[6-({5-Chloro-2-[(phenylmethyl)oxy]phenyl}methyl)-2-pyridinyl]-4,5-difluoro-1H-benzimidazolehydrochloride]

Each molecule was assayed against T2, human prostanoid EP1 receptor (Homo sapiens, UniProt P34995) (assay: Binding assay for the human prostanoid EP1 receptor (competition with [3H]-PGE2)). Details: [3H]-PGE2 competition, human EP1, CHO-K1 membranes; averages of a number of experiments; read-out: pIC50 value (converted).
T2 construct: expressed in transfected cells; host or cells: CHO-K1 (membrane fraction)
T2 sequence (P34995 1-402): T1 sequence (P34995 1-402)
Method: Competition assay using [^3H]-PGE2.
Compound potencies are determined using a radioligand binding assay. In this assay compound potencies are determined from their ability to compete with tritiated prostaglandin E2 ([^3H]-PGE2) for binding to the human EP1 receptor.
This assay utilises Chinese hamster ovary-K1 (CHO-K1) cells into which a stable vector containing the EP1 cDNA has previously been transfected. Cells are cultured in suitable flasks containing culture medium such as DMEM:F-12 supplemented with 10% v/v foetal calf serum, 2 mM L-glutamine, 0.25 mg/ml geneticin, 10 μg/ml puromycin and 10 μM indomethacin.
Cells are detached from the culture flasks by incubation in calcium and magnesium free phosphate buffered saline containing 1 mM disodium ethylenediaminetetraacetic acid (Na2EDTA) and 10 μM indomethacin for 5 min. The cells are isolated by centrifugation at 250×g for 5mins and suspended in an ice cold buffer such as 50 mM Tris, 1 mM Na2EDTA, 140 mM NaCl, 10 μM indomethacin (pH 7.4). The cells are homogenised using a Polytron tissue disrupter (2×10 s burst at full setting), centrifuged at 48,000×g for 20mins and the pellet containing the membrane fraction is washed (optional) three times by suspension and centrifugation at 48,000×g for 20mins. The final membrane pellet is suspended in an assay buffer such as 10 mM 2-[N-morpholino]ethanesulphonic acid, 1 mM Na2EDTA, 10 mM MgCl2 (pH 6). Aliquots are frozen at −80° C. until required.
For the binding assay the cell membranes, competing compounds and [^3H]-PGE2 (3 nM final assay concentration) are incubated in a final volume of 100 μl for 30 min at 30° C. All reagents are prepared in assay buffer. Reactions are terminated by rapid vacuum filtration over GF/B filters using a Brandell cell harvester. The filters are washed with ice cold assay buffer, dried and the radioactivity retained on the filters is measured by liquid scintillation counting in Packard TopCount scintillation counter.
The data are analysed using non linear curve fitting techniques to determine the concentration of compound producing 50% inhibition of specific binding (IC50).

Row | IC50 | Compound
21 | ≤ 0.1 µM | O=C(Nc1cccc(Cc2cc(Cl)ccc2OCc2ccccc2)n1)C1CCCO1 (stereo not drawn) [Example 17, N-[6-({5-Chloro-2-[(phenylmethyl)oxy]phenyl}methyl)-2-pyridinyl]tetrahydro-2-furancarboxamide]
22 | ≤ 0.1 µM | O=C(Nc1cccc(Cc2cc(Cl)ccc2OCc2ccccc2)n1)C1CCOC1 (stereo not drawn) [Example 18, N-[6-({5-Chloro-2-[(phenylmethyl)oxy]phenyl}methyl)-2-pyridinyl]tetrahydro-3-furancarboxamide]
23 | ≤ 0.1 µM | CC(C)COc1ccc(Cl)cc1Cc1cccc(-c2ncc[nH]2)n1 [Example 42, 2-({5-Chloro-2-[(2-methylpropyl)oxy]phenyl}methyl)-6-(1H-imidazol-2-yl)pyridine]
24 | ≤ 0.1 µM | CN(C)Cc1ccc(NC(=O)c2cccc(Cc3cc(Cl)ccc3OCc3ccc(Cl)cc3F)n2)cc1 [Example 53, 6-[(5-Chloro-2-{[(4-chloro-2-fluorophenyl)methy]oxy}phenyl)methyl]-N-{4-[(dimethylamino)methyl]phenyl}-2-pyridinecarboxamide]
